The target in assay [1] is T1, Acetylcholinesterase (Bos taurus, UniProt P23795).
T1 sequence (P23795 whole entry): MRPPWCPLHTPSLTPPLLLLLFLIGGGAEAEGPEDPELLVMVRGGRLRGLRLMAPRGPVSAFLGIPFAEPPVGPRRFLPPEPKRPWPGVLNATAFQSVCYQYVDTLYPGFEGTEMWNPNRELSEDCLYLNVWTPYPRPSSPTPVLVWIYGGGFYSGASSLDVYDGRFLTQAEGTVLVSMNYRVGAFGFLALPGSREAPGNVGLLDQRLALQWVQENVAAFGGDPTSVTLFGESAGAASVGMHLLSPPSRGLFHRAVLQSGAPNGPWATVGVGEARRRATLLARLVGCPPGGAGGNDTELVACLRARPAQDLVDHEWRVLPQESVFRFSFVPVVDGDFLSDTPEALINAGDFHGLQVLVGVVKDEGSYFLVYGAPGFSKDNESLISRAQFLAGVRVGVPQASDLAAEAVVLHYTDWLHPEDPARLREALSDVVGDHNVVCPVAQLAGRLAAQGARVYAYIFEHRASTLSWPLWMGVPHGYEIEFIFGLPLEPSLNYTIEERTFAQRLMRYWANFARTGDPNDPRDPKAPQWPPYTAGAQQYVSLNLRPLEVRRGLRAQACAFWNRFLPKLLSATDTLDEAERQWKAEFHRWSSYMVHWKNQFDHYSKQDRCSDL
Description: Inhibition of bovine erythrocyte AChE by Ellman's assay

In assay [2] the target is Acetylcholinesterase (Homo sapiens, UniProt P22303).
Description: Inhibition of human erythrocyte AChE by Ellman's assay
The next assay addresses Cholinesterase (Homo sapiens, UniProt P06276).

For orientation: IC50 means the point on the concentration scale where inhibition reaches its midpoint.

Acetylcholinesterase (Homo sapiens, UniProt P22303), sequence (P22303 whole entry): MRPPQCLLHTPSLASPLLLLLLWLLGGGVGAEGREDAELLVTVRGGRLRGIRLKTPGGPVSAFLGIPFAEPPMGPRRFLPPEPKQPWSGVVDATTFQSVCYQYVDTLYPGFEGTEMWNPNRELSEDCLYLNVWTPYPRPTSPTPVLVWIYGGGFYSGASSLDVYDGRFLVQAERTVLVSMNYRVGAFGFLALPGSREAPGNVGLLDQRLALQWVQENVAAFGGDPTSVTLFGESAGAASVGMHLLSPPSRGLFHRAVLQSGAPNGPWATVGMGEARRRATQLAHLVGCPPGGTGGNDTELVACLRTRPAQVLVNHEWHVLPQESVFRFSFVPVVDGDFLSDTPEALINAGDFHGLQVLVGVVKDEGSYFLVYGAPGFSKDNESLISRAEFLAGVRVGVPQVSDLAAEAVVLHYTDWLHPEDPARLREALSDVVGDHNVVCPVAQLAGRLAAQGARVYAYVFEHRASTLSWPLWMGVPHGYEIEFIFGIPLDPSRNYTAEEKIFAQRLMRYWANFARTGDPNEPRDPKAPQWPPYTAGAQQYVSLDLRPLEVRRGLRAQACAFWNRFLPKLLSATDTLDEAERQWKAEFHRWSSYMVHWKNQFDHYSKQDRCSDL
Cholinesterase, sequence (P06276 whole entry): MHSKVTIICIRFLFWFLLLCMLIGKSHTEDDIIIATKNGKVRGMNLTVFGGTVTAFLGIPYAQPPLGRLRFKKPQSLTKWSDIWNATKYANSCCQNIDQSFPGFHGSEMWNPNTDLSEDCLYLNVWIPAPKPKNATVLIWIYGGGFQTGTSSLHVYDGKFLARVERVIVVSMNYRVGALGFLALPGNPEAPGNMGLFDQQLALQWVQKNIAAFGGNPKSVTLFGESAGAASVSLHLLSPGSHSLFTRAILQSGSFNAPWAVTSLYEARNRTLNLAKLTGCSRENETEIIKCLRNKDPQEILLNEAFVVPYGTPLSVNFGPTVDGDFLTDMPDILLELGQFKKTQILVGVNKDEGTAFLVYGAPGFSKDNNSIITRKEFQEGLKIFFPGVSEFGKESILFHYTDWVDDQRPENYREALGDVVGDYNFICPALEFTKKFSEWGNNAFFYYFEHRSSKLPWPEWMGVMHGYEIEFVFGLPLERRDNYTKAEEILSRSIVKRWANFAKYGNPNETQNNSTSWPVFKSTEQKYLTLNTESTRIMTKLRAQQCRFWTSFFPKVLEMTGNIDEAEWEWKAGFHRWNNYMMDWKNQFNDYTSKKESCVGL

For `COc1cc2c(cc1OC)CC(CC1CCN(CCCNc3c4c(nc5ccccc35)CCCC4)CC1)C2`, the figures for the IC50 against Acetylcholinesterase [1], against Acetylcholinesterase [2] and against Cholinesterase were 0.82 nM, 2.16 nM and 7.25 nM, respectively.

Take `COc1cc2c(cc1OC)CC(CC1CCN(Cc3ccccc3)CC1)C2`: the results for the IC50 at Acetylcholinesterase [1] and on Cholinesterase were 1450 nM and 6400 nM, respectively.

`COc1cc2c(cc1OC)C(=O)C(CC1CCN(CCCNc3c4c(nc5cc(Cl)ccc35)CCCC4)CC1)C2` (configuration not stated): the midpoint of inhibition on Cholinesterase, the IC50, lay at 66.3 nM.

`COc1cc2c(cc1OC)C(=O)C(CC1CCN(CCCNc3c4c(nc5ccccc35)CCCC4)CC1)C2` (configuration not stated): the IC50 against Acetylcholinesterase [1] came out at 0.29 nM; against Acetylcholinesterase [2], 0.88 nM; against Cholinesterase it was 12.3 nM.

Regarding `COc1cc2c(cc1OC)CC(CC1CCN(CCCNc3c4c(nc5cc(Cl)ccc35)CCCC4)CC1)C2`, the IC50 turned out to be 0.82 nM at Acetylcholinesterase [1], 1.06 nM at Acetylcholinesterase [2] and 72.7 nM against Cholinesterase.

Take `COc1cc2c(cc1OC)CC(CC1CCN(CCNc3c4c(nc5ccccc35)CCCC4)CC1)C2`: the values for the IC50 against Acetylcholinesterase [1], against Acetylcholinesterase [2] and on Cholinesterase were 2.28 nM, 5.13 nM and 8.06 nM, respectively.

Turning to `Nc1c2c(nc3cc(Cl)ccc13)CCCC2`, at Acetylcholinesterase [1], half-maximal inhibition (IC50) required 5.73 nM.

As for `COc1cc2c(cc1OC)CC(CC1CCN(CCNc3c4c(nc5cc(Cl)ccc35)CCCC4)CC1)C2`, the IC50 came out at 1.86 nM against Acetylcholinesterase [1], 2.6 nM against Acetylcholinesterase [2] and 88.7 nM against Cholinesterase.

`COc1cc2c(cc1OC)C(=O)C(CC1CCN(CCNc3c4c(nc5cc(Cl)ccc35)CCCC4)CC1)C2` (configuration not stated): the IC50 was determined as 0.57 nM against Acetylcholinesterase [1], 0.67 nM at Acetylcholinesterase [2] and 136 nM against Cholinesterase.

These data come from ChEMBL document CHEMBL1150773, “Novel donepezil-based inhibitors of acetyl- and butyrylcholinesterase and acetylcholinesterase-induced beta-amyloid aggregation” (J Med Chem, 2008).
